Earlier results in patent US20060270610A1, “Novel compounds for hypoxic cell therapy and imaging” (priority 2005, published 2006).
Like-named read-outs stand apart in the source and are kept apart here. Each block holds one molecule with its values, some of them ahead of it.

Legend:
[1] = biological target: T1, NBMPR (nitrobenzylthioinosine)-sensitive equilibrative nucleoside transporter (Homo sapiens, UniProt Q99808); settings: in vitro, erythrocytes
T1 construct: equilibrative nucleoside transporter in erythrocytes; endogenous in cells
T1 sequence (Q99808 1-456): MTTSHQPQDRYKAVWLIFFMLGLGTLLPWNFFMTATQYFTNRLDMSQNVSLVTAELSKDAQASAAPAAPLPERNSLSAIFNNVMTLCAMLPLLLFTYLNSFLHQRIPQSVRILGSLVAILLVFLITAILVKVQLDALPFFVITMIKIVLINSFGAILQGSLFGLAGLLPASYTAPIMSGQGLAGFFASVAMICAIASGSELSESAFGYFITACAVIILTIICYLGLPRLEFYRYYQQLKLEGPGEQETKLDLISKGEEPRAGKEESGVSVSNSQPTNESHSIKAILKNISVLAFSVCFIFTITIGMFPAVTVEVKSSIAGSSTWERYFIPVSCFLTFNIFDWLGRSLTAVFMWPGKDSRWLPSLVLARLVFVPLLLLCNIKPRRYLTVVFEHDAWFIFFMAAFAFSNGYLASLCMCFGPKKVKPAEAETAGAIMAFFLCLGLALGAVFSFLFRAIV

[2] = rats, via the renal system; compared with [18F]FMISO
murine tumor models = settings: three different murine tumor models; greater than [18F]FMISO

SMILES: O=[N+]([O-])c1nccn1[C@H]1O[C@H](CI)[C@@H](O)[C@@H]1O [IAZA, 1-α-D-(5-dexoy-5-iodorabinofuranosyl)-2-nitroimidazole]
transport by NBMPR-sensitive equilibrative nucleoside transporter [1]: not transported

clearance from blood, viscera and muscle tissue [2]: faster clearance
uptake in normal brain tissue (patients studied sequentially): absence of [^18F] 1-α-D-FAZA uptake
SMILES: O=[N+]([O-])c1nccn1[C@H]1O[C@H](C[18F])[C@@H](O)[C@@H]1O [[^18F] 1-α-D-FAZA]
tumor:blood ratios relative to [18F]FMISO (murine tumor models): 2-4 times

SMILES: OC[C@H]1OC(O)[C@H]([18F])[C@@H](O)[C@@H]1O (stereo partly drawn) [[^18F]FDG]
uptake in normal brain tissue (human, in vivo): taken up as a reflection of glucose metabolism in healthy brain

SMILES: O=[N+]([O-])c1nccn1CC(O)C[18F] (stereo not drawn) [[^18F]FMISO]
uptake in normal brain tissue (human, in vivo): taken up non-specifically by brain
